Test results published in patent US6303596A, “Use of taurolidine for treatment of leukemias” (priority 2000, dated 2001).

Tests used:
Format in all cases: cell-based, human
tissue factor (TF) = assay: TF activity (coagulation) assay on LPS-induced PBMC treated in whole blood
Protocol: In order to determine if taurolidine would inhibit LPS-induced TF expression in PBMC in their native milieu, i.e., whole blood, a tissue factor activity assay was performed. LPS (10 ng/ml) and taurolidine (100-500 μg/ml) or equal dilutions of the taurolidine vehicle were added to 5 ml aliquots of heparinized blood, and the blood was incubated in 50 ml centrifuige tubes at 37° C., rotating on a horizontal rotator at 120 rpm. After 4 hours, PBMC were purified from the blood using Histopaque as described previously. Cells were lysed by 3 freeze-thaw cycles, and used as a source of TF in coagulation assays. For these assays, 50 μl of lysate (at 2×10^7 cells/ml) was added to 50 μl pooled normal human plasma, incubated for 30 seconds at 37° C., then 50 μl of 25 MM CaCl2 was added and clot formation assayed using a Diagnostica Stago ST4 coagulometer. Protein content of the cell samples was determined by bicinchoninic acid assay (Pierce Chemical Company, Rockford, Ill.), and used to normalize the clotting data. A standard curve was made with descyto TF reconstituted in PS/PC vesicles according to the method of Mimms et al. (Mimms, et al., "Phospholipid vesicle formation and transmembrane protein incorporation using octyl glucoside," Biochemistry 20:833-840 (1981)). One unit of TF was defined as that which caused clot formation at 50 seconds of incubation with CaCl2. The TF activity assays were performed on LPS-induced PBMC after 4 hour treatment in whole blood. A dose-response effect of taurolidine on monocyte TF is illustrated in Table II. […] Thus, higher concentrations of taurolidine were required to inhibit TF when the PBMC were treated with whole blood when compared to PBMC in culture medium. Further, lower concentrations of taurolidine were required to down-regulate TF expression than were needed to induce apoptosis as described below.
^a Heparinized blood was incubated in the presence of LPS and varying
amounts of taurolidine, then PBMC were purified, and coagulation assays
performed on cell lysates. Units of TF per mg protein were calculated as
described above, and data expressed as percentage of LPS-only ("control")
samples. Data shown are mean ± S.D. of two experiments.

[1] = system: leukemia-derived cell lines; assay: trypan blue exclusion, cell lines taken together
Protocol: In these experiments, integrity of cell membranes following taurolidine treatment was assessed by exclusion of trypan blue and by measuring the release of LDH in MM6, K-562, HL-60, and REH cells. Since BCS contains significant amounts of LDH, these experiments were conducted on cells cultured in AIM-V+0.01% BCS. Four hour treatment of cells was conducted in AIM-V containing 0.01% BCS in order to allow subsequent LDH assay without interference from BCS (which occurs in when normal culture medium, containing 10% BCS, is used). Thus, MM6 cells (5×10^5 cells/ml) were treated with taurolidine for four hours in AIM-V+0.01% BCS, after which an aliquot of the cell suspension was removed for measurement of LDH release. A parallel aliquot of cells was lysed by three cycles of freeze/thaw and the quantity of LDH released was taken to be 100%. Remaining cells were rinsed in HBSS and resuspended in growth medium for measurement of growth rates.
HL-60 cells treated with 50 μl taurolidine. In these samples, LDH present in the culture medium was 8.3±2.3% of that released by completely lysed cells, compared with 2.3±0.8% measured in control cultures. […] After 4 hour treatment, cells were rinsed and returned to growth medium and monitored for viability and growth over the following 3 days. […]

Lymphocytes = assay: tissue or blood; conditions: for induction of apoptosis in lymphocytes: whole blood
Protocol: (§1) FIGS. 15A, 15B, and 15C depict TUNEL analysis of PBMC treated with taurolidine in whole blood, for control cells, taurolidine-treated cells, and anisomycin-treated cells, respectively . Cells were incubated with 500 μg/ml taurolidine for 4 hours, resuspended in fresh medium, incubated for two hours further and processed for TUNEL analysis. Parallel samples were stained with FITC-conjugated anti-CD14 and PI as described herein. Ten thousand events were recorded per sample. TUNEL signal (x -axis) is a measure of DNA fragmentation, while FSC (y-axis) is related to cell size. TUNEL-negative lymphocytes are bounded by rectangle R 1, while TUNEL-negative monocytes (CD 14 positive cells) are bounded by rectangle R2. R3 bounds the TUNEL-positive population of cells. There were minimal numbers of PI-positive cells in 6 hour samples (see Table VI).
(§2) In the second method, DNA fragmentation was detected via TUNEL assay according to the manufacturer's instructions. With this methodology, 2×10^6 cells were fixed with 2% paraformaldehyde, permeabilized with 0.1% Triton X-100/0.1% citrate, incubated at 37° C. with terminal deoxynucleotidyl transferase and FITC-dUTP, rinsed and analyzed by flow cytometry. Enhanced FITC signal indicates apoptosis-specific DNA fragmentation. Gavriali, et al, "Identification of programmed cell death in situ via specific labeling of nuclear DNA fragmentation," J Cell Biol 119:493 (1992). Parallel aliquots of unfixed cells were treated with PI and FITC-conjugated anti-CD14 and analyzed by flow cytometry, in order to identify cells with permeable cell membranes (since PI binds to DNA but is excluded from cells with intact plasma membranes) and also to determine the cell-specificity of the apoptotic signal.
(§3) Taurolidine at 100 μg/ml induced apoptosis of approximately 75% of purified peripheral blood monocytes when these cells were incubated in culture medium. However, in order to more closely mimic the milieu of leukocytes in vivo, induction of apoptosis in PBMC by taurolidine was studied in whole blood (anticoagulated with heparin). As before, apoptosis was quantitated by measuring the loss of monocytes from a TUTNEL-negative (no DNA fragmentation), CD 14 positive population of cells which was concomitant with the appearance of a TUNEL-positive population of cells. Treatment of PBMC in whole blood resulted
(§4) in a shift of the taurolidine dose-response curve. […] As a positive control for induction of apoptosis, some cells were treated with anisomycin, a protein synthesis inhibitor known to induce apoptosis in monocytes.
(§5) ^a Analysis by flow cytometry after staining cells with PI and
(§6) processing for TUNEL. Data are mean ± SD of 2 experiments.
(§7) ^b Percent of cells present in the TUNEL-negative region in control

Monocytes = assay: tissue or blood
Protocol: as §1, §2, §3, §4, §5, §6, §7

[2] = Homo sapiens, Lymphocyte, 6 h, read-out: % TUNEL-negative
[3] = Homo sapiens, Monocyte, 6 h, read-out: % TUNEL-negative

Molecule `O=S1(=O)CCN(CN2CCS(=O)(=O)NC2)CN1` [taurolidine, 4,4'-methylenebis(perhydro-1,2,4-thiadiazin 1,1-dioxide)] has an activity at 100 µg/mL (tissue factor (TF); Homo sapiens, PBMC, 100 μg/ml taurolidine, 4 h, mean ± S.D. of two experiments, read-out: coagulation activity of LPS-induced PBMC, % of control) of 87.7 ± 6.6%, an inhibition at 100 µg/mL (tissue factor (TF); Homo sapiens, PBMC, 100 μg/ml taurolidine, 4 h, read-out: decrease of TF activity) of 12% and an activity at 200 µg/mL (tissue factor (TF); Homo sapiens, PBMC, 200 μg/ml taurolidine, 4 h, mean ± S.D. of two experiments, read-out: coagulation activity of LPS-induced PBMC, % of control) of 41.7 ± 8%. It also gave an inhibition at 200 µg/mL (tissue factor (TF); Homo sapiens, PBMC, 200 μg/ml taurolidine, 4 h, read-out: decrease of TF activity) of about 60%, an activity at 500 µg/mL (tissue factor (TF); Homo sapiens, PBMC, 500 μg/ml taurolidine, 4 h, mean ± S.D. of two experiments, read-out: coagulation activity of LPS-induced PBMC, % of control) of 26.5 ± 10.6% and an inhibition at 500 µg/mL (tissue factor (TF); Homo sapiens, PBMC, 500 μg/ml taurolidine, 4 h, read-out: loss of TF activity) of about 75%. The “reduction of TF activity of LPS-induced monocytes” value (tissue factor (TF); taurolidine as low as 200 μg/ml) was “significant reduction”, the “trypan blue assay on Day 1” value ([1]; all samples, 25 to 100 μg/ml taurolidine, after 4 h treatment) was “equivalent to control” and the “progressive permeability to trypan blue over following days” value ([1]; leukemia-derived cell lines except K562, taurolidine 50 μg/ml or greater) was “permeability to trypan blue”. The viability at 200 µg/mL (Lymphocytes; [2]) was 92.7 ± 6%, the viability at 500 µg/mL (Lymphocytes; [2]) was 91.8 ± 6.9% and the “induction of apoptosis in lymphocytes” value (Lymphocytes) was “no evidence for a significant effect”. The “induction of apoptosis in lymphocytes” value (Lymphocytes; taurolidine up to 500 μg/ml) was “does not induce a significant amount of apoptosis”, the viability at 200 µg/mL (Monocytes; [3]) was 117 ± 11.2% and the viability at 500 µg/mL (Monocytes; [3]) was 27.9 ± 12%. For the same molecule, the cytotoxicity at 500 µg/mL (Monocytes; Homo sapiens, Monocyte, read-out: loss of TUNEL-negative monocytes) was 70%, the “induction of apoptosis in whole blood” value (Monocytes; up to 200 μg/ml taurolidine) was “did not induce significant apoptosis” and the “effective concentration in whole blood relative to culture medium” value (Monocytes; whole blood versus purified PBMC in culture medium) was 5 times.
